Assay results from patent US20140140951A1, “D-Alanine Ester of Rp-Nucleoside Analog” (priority 2012, published 2014).

Key:
[1] = Stability in liver microsomes; format: in vitro ADME, human; conditions: 10 μM, 1.0 mg/mL protein, NADPH, 60 min
Method: (§1) Stability of test compounds was determined in subcellular fractions (microsomes and S9) of human liver and intestine in duplicate for each matrix. Pooled liver and intestinal microsomal, intestinal and liver S9 proteins (1.0 mg/mL), suspended in incubation buffer (100 mM potassium phosphate, pH 7.4, 5 mM MgCl2, and 0.1 mM EDTA), were preincubated for 5 min at 37° C. with 10 μM of a test compound from a 10 mM stock solution in DMSO (final DMSO concentration was 0.1%); the reaction was initiated by the addition of NADPH (3 mM final concentration). At specific times (0 and 60 min), 0.1 mL samples were taken and the reaction terminated by the addition of 4 volumes of stop solution (acetonitrile with 500 ng/mL carbutamide as an internal standard). The samples were vortexed for 30 sec and then centrifuged at 16,000 g for 10 min. Aliquots of supernatants (100 μL each) were transferred to 96 deep-well plates preloaded with 100 μL distilled water and analyzed after mixing by LC-MS/MS. The MS peak area ratio of the test compound versus the internal standard was calculated and percent unchanged test compound over 60 minutes was calculated using this ratio.

[2] = test system: HCV genotype 1b replicon; test: HCV replicon assay (luciferase reporter); format: cell-based; conditions: Hepatitis C virus; Zluc (Huh-7-derived) cells, 72 hours
Method: Huh-7-derived cell line (Zluc) that harbors an HCV genotype 1b replicon and a luciferase reporter gene was grown in Dulbecco's Modified Eagle Medium (DMEM) supplemented with 10% fetal bovine serum, 2 mM GlutaMAX, 1% MEM nonessential amino acids, 100 IU/mL penicillin, 100 μg/mL streptomycin, and 0.5 mg/mL Geneticin® (G418). For dose response testing the cells were seeded in 96-well plates at 7.5×10^3 cells per well in a volume of 50 μL, and incubated at 37° C./5% CO2. Drug solutions were made up freshly in Huh-7 media as 2× stocks. […] were prepared from these stocks in DMEM without G418. At least three hours after Zluc cells were seeded, drug treatment was initiated by adding 50 μL of drug dilutions to the plates in duplicate. Final concentrations of drug ranged from 100 μM to 0.0000512 μM. Cells were then incubated at 37° C./5% CO2. […] For this, media was removed from the plates via gentle tapping. Fifty microliters of ONE-glo luciferase assay reagent was added to each well. The plates were shaken gently for 3 min at room temperature and luminescence was measured on a Victor^3 V 1420 multilabel counter (Perkin Elmer) with a 1 second read time using a 700 nm cut-off filter. The EC50 values were calculated from dose response curves from the resulting best-fit equations determined by Microsoft Excel and XLfit 5.2 software. […]

[3] = Liver pharmacokinetics (triphosphate) following a single oral dose in CD-1 mice; format: in vivo; conditions: single oral dose 10 mg/kg for I or 25 mg/kg for II in PEG 200, CD-1 male mice
Method: Liver samples were analyzed for the active species 2′-methyl-2′-fluorouridine triphosphate (2′-Me-2′-F—U TP) by LC-MS/MS. […] Internal standard solution was added to the homogenate followed by neutralization with 20% ammonium hydroxide solution and addition of 500 μL 1% formic acid. The tissue samples were extracted by weak anion exchange solid phase extraction (SPE). Post extraction, the eluates were evaporated under nitrogen, followed by reconstitution before injection onto the LC-MS/MS system. […] The calibration range was 10 to 10000 pmol/mL in mouse liver homogenate (50 to 50000 pmol/g of mouse liver).

[4] = Cytotoxicity evaluation (CellTiter-Blue cell viability); format: cell-based; conditions: human, Zluc cells (HCV replicon cells)
Method: For cytotoxicity evaluation, Zluc cells were treated with compound as described herein, and cell viability was monitored using the CellTiter-Blue Cell Viability Assay (Promega) by adding 20 μL of the assay solution to each well. The plates were then incubated at 37° C./5% CO2 for at least 3 hours. Fluorescence was detected in plates using excitation and emission wavelengths of 531 and 595 nm, respectively, in a Victor^3 V 1420 multilabel counter (Perkin Elmer) and CC50 values were determined using Microsoft Excel and XLfit 5.2 software.

[5] = Stability in intestinal microsomes; format: in vitro ADME, human; conditions: 10 μM, 1.0 mg/mL protein, NADPH, 60 min
Method: as §1

| Compound | Stability (percent remaining) HLM (1 hr) [1] | EC50 [2] | Ms Liver 2′-Me-2′-F-U TP AUC (pmol · hr/g at 1 μmol/kg) [3] | CC50 at 72 h [4] | Stability (percent remaining) HIM (1 hr) [5] |
| --- | --- | --- | --- | --- | --- |
| CC(C)OC(=O)[C@@H](C)N[P@@](=O)(OC[C@H]1O[C@@H](n2ccc(=O)[nH]c2=O)[C@](C)(F)[C@@H]1O)Oc1ccccc1 [Compound (Ia), D-Alanine, N—((RP,2′R)-2′-deoxy-2′-fluoro-2′-methyl-P-phenyl-5′-uridylyl)-, 1-methylethyl ester] | ++++ (60% < ++++ ≦ 80%) | > 10 µM | +++++ (1600 < +++++) | > 50 µM | +++++ (80% < +++++) |
| CC(C)OC(=O)[C@@H](C)N[P@](=O)(OC[C@H]1O[C@@H](n2ccc(=O)[nH]c2=O)[C@](C)(F)[C@@H]1O)Oc1ccccc1 [Compound (Ib)] | +++++ (80% < +++++) | > 10 µM | +++ (400 < +++ ≦ 1000) | > 50 µM | +++++ (80% < +++++) |
